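These data come from cells grown in 96-well plates and exposed to compound for 48 hours at five concentrations. At the GI50, growth is halved. TGI is the concentration that stops growth completely.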
Assays:
Assay in all cases: inhibition of tumour cell growth, NCI panel, 48 h
[1] = system: NCI/ADR-RES ovarian
[2] = system: SF-268 CNS
[3] = system: HT29 colon
[4] = system: HCT-116 colon
[5] = system: BT-549 breast
[6] = system: OVCAR-4 ovarian
[7] = system: OVCAR-3 ovarian
[8] = system: OVCAR-5 ovarian
[9] = system: LOX IMVI melanoma
[10] = system: HS 578T breast
[11] = system: EKVX NSCLC
[12] = system: SK-OV-3 ovarian
[13] = system: T-47D breast
[14] = system: UO-31 renal
[15] = system: A549 NSCLC
[16] = system: SN12C renal
[17] = system: MDA-MB-231 breast
[18] = system: RPMI-8226 leukemia
[19] = system: U251 CNS
[20] = system: MDA-MB-435
[21] = system: RXF 393 renal
[22] = system: ACHN renal
[23] = system: SW-620 colon
[24] = system: 786-0 renal
[25] = system: SR leukemia
[26] = system: SF-539 CNS
[27] = system: OVCAR-8 ovarian
[28] = system: HCT-15 colon
[29] = system: PC-3 prostate
[30] = system: COLO 205 colon
[31] = system: NCI-H522 lung
[32] = system: SNB-75 CNS
[33] = system: MALME-3M melanoma
[34] = system: SK-MEL-28 melanoma
[35] = system: KM12 colon
[36] = system: HCC-2998 colon
[37] = system: IGROV1 ovarian
[38] = system: HOP-92 NSCLC
[39] = system: UACC-62 melanoma
[40] = system: NCI-H460 lung
[41] = system: NCI-H226 lung
[42] = system: SK-MEL-2 melanoma
[43] = system: CCRF-CEM leukemia
[44] = system: CAKI-1 renal
[45] = system: HOP-62 NSCLC
[46] = system: MCF7 breast
[47] = system: MOLT-4 leukemia
[48] = system: DU-145 prostate
[49] = system: TK-10 renal
[50] = system: M14 melanoma
[51] = system: NCI-H23 lung
[52] = system: HL-60(TB) leukemia
[53] = system: K-562 leukemia
[54] = system: SNB-19 CNS
[55] = system: UACC-257 melanoma

CC1=C2C(=C[C@@](C)(C=O)[C@@H]2O)C(=O)[C@](C)(O)C12CC2
GI50 [1]: 1.56 µM
TGI [1]: 5.7 µM
GI50 [2]: 2.59 µM
TGI [2]: 10.3 µM
GI50 [3]: 1.13 µM
TGI [3]: 88 µM
GI50 [4]: 0.569 µM
TGI [4]: > 100 µM
GI50 [5]: 1.59 µM
TGI [5]: 4.73 µM
GI50 [6]: 2.04 µM
TGI [6]: 7.07 µM
GI50 [7]: 1.35 µM
TGI [7]: 5.77 µM
GI50 [8]: 0.424 µM
TGI [8]: 4.44 µM
GI50 [9]: 1.16 µM
TGI [9]: 4.43 µM
GI50 [10]: 1.99 µM
TGI [10]: 5.36 µM
GI50 [11]: 2.8 µM
TGI [11]: 8.86 µM
GI50 [12]: 2.66 µM
TGI [12]: 7.79 µM
GI50 [13]: 2.39 µM
TGI [13]: 8.86 µM
GI50 [14]: 1.7 µM
TGI [14]: 9.01 µM
GI50 [15]: 0.476 µM
TGI [15]: 11.9 µM
GI50 [16]: 2.85 µM
TGI [16]: 51.5 µM
GI50 [17]: 2.49 µM
TGI [17]: 7.55 µM
GI50 [18]: 7.28 µM
TGI [18]: 52.2 µM
GI50 [19]: 1.05 µM
TGI [19]: > 100 µM
GI50 [20]: 2.07 µM
TGI [20]: 4.72 µM
GI50 [21]: 0.277 µM
TGI [21]: 0.799 µM
GI50 [22]: 1.56 µM
TGI [22]: 8.2 µM
GI50 [23]: 0.881 µM
TGI [23]: > 100 µM
GI50 [24]: 2.4 µM
TGI [24]: 10.1 µM
GI50 [25]: 2.16 µM
TGI [25]: > 100 µM
GI50 [26]: 1.48 µM
TGI [26]: 3.33 µM
GI50 [27]: 2.39 µM
TGI [27]: > 100 µM
GI50 [28]: 0.842 µM
TGI [28]: 9.1 µM
GI50 [29]: 1.55 µM
TGI [29]: 8.26 µM
GI50 [30]: 1.12 µM
TGI [30]: 4.68 µM
GI50 [31]: 1.79 µM
TGI [31]: 4.94 µM
GI50 [32]: 1.58 µM
TGI [32]: 3.95 µM
GI50 [33]: 1.61 µM
TGI [33]: 3.83 µM
GI50 [34]: 1.96 µM
TGI [34]: 5.03 µM
GI50 [35]: 3.09 µM
TGI [35]: 22.2 µM
GI50 [36]: 1.38 µM
TGI [36]: 3.48 µM
GI50 [37]: 0.789 µM
TGI [37]: 5.76 µM
GI50 [38]: 2.39 µM
TGI [38]: 6.68 µM
GI50 [39]: 1.52 µM
TGI [39]: 3.67 µM
GI50 [40]: 0.26 µM
TGI [40]: 0.71 µM
GI50 [41]: 2.07 µM
TGI [41]: 5.09 µM
GI50 [42]: 2.08 µM
TGI [42]: 4.58 µM
GI50 [43]: 1.74 µM
TGI [43]: > 100 µM
GI50 [44]: 0.541 µM
TGI [44]: 22 µM
GI50 [45]: 2.53 µM
TGI [45]: 14.1 µM
GI50 [46]: 0.381 µM
TGI [46]: 10.5 µM
GI50 [47]: 2.18 µM
TGI [47]: > 100 µM
GI50 [48]: 0.34 µM
TGI [48]: 10.1 µM
GI50 [49]: 2.7 µM
TGI [49]: 8.77 µM
GI50 [50]: 1.78 µM
TGI [50]: 5.11 µM
GI50 [51]: 0.666 µM
TGI [51]: 2.45 µM
GI50 [52]: 1.47 µM
TGI [52]: 6.97 µM
GI50 [53]: 2.91 µM
TGI [53]: > 100 µM
GI50 [54]: 2.5 µM
TGI [54]: 12.5 µM
GI50 [55]: 3.15 µM
TGI [55]: 15.2 µM
